Entries after “also recorded” stand apart in the source; their conditions may differ. Ends that are not written are not given here.
What was measured:
[1] = tested on: S. pneumoniae; assay: MIC (broth microdilution); format: cell-based, Streptococcus pneumoniae
Description: (§1) Typically, the in vitro antimicrobial activity of antimicrobial agents is tested using standard NCCLS bacterial inhibition assays, or MIC tests (see, National Committee on Clinical Laboratory Standards “Performance Standards for Antimicrobial Susceptibility Testing,” NCCLS Document M100-S5 Vol. 14, No. 16, December 1994; “Methods for dilution antimicrobial susceptibility test for bacteria that grow aerobically-Third Edition,” Approved Standard M7-A3, National Committee for Clinical Standards, Villanova, Pa.).
(§2) Briefly, ˜1×10^5 cfu/mL bacteria were diluted in TH (S. mutans), or Mueller-Hinton (MH) broth (all other organisms) and distributed to 96-well plates. Serially-diluted (2-fold) peptides were then added and the plates incubated at 37° C. for 18-24 h. […] All experiments were conducted 10 times.

[2] = tested on: microorganisms (e.g., bacteria, yeasts, fungi); assay: Targeting peptide binding to target microorganisms (Table 3); details: preferably 1x PBS; for Target(s): microorganism(s) the targeting peptide binds; for Target(s) (microorganisms bound by the targeting peptide): peptide binding in aqueous buffers varied by peptide solubility
[3] = tested on: microorganisms; assay: Peptides having multiple activities (targeting/binding, antimicrobial, growth or phenotype altering)
Text: In certain embodiments, peptides described herein can have multiple activities. Thus for example, a peptide can have both binding/targeting activity and antimicrobial activity. Such peptides can be used, e.g., in a chimeric construct, for any or all of these properties. Thus, for example, a peptide designated “B” in Table 8 can be used as a targeting peptide. If it is also designated G or M it can also be used for antimicrobial activity.

[4] = tested on: S. pneumoniae; assay: Kill or inhibit growth/proliferation; morphology, biofilm and growth disruption (Tables 5, 6); format: cell-based, Streptococcus pneumoniae; parameters: key: A: Peptide aggregates; B: Less hyphal formation; Clumps; Diffuse clumps and small polyps; F: Diffuse growth; H: Thin; I: Growth inhibition; Microcolony formation; Rippled; Small polyps; Thick; W: Halo formation on top, microlonies on bottom; further: test concentration or dose not given here
[5] = tested on: B. subtilis; assay: MIC (broth microdilution); format: cell-based, Bacillus subtilis
Description: as §1, §2

[6] = tested on: B. subtilis; assay: Kill or inhibit growth/proliferation; morphology, biofilm and growth disruption (Tables 5, 6); format: cell-based, Bacillus subtilis; parameters: key: A: Peptide aggregates; B: Less hyphal formation; Clumps; Diffuse clumps and small polyps; F: Diffuse growth; H: Thin; I: Growth inhibition; Microcolony formation; Rippled; Small polyps; Thick; W: Halo formation on top, microlonies on bottom; further: test concentration or dose not given here
[7] = tested on: S. epidermidis; assay: as above; format: cell-based, Staphylococcus epidermidis; parameters: key: A: Peptide aggregates; B: Less hyphal formation; Clumps; Diffuse clumps and small polyps; F: Diffuse growth; H: Thin; I: Growth inhibition; Microcolony formation; Rippled; Small polyps; Thick; W: Halo formation on top, microlonies on bottom; further: test concentration or dose not given here
[8] = tested on: A. niger; assay: MIC (broth microdilution); format: cell-based, Aspergillus niger
Description: as §1, §2

[9] = tested on: MRSA; assay: MIC (broth microdilution); format: cell-based, Methicillin-resistant Staphylococcus aureus
Description: as §1, §2

[10] = tested on: MRSA; assay: Kill or inhibit growth/proliferation; morphology, biofilm and growth disruption (Tables 5, 6); format: cell-based, Methicillin-resistant Staphylococcus aureus; parameters: key: A: Peptide aggregates; B: Less hyphal formation; Clumps; Diffuse clumps and small polyps; F: Diffuse growth; H: Thin; I: Growth inhibition; Microcolony formation; Rippled; Small polyps; Thick; W: Halo formation on top, microlonies on bottom; further: test concentration or dose not given here
[11] = tested on: P. aeruginosa; assay: as above; format: cell-based, Pseudomonas aeruginosa; parameters: key: A: Peptide aggregates; B: Less hyphal formation; Clumps; Diffuse clumps and small polyps; F: Diffuse growth; H: Thin; I: Growth inhibition; Microcolony formation; Rippled; Small polyps; Thick; W: Halo formation on top, microlonies on bottom; further: test concentration or dose not given here
[12] = tested on: E. faecalis; assay: as above; format: cell-based, Enterococcus faecalis; parameters: key: A: Peptide aggregates; B: Less hyphal formation; Clumps; Diffuse clumps and small polyps; F: Diffuse growth; H: Thin; I: Growth inhibition; Microcolony formation; Rippled; Small polyps; Thick; W: Halo formation on top, microlonies on bottom; further: test concentration or dose not given here
[13] = tested on: E. coli; assay: as above; format: cell-based, Escherichia coli; parameters: key: A: Peptide aggregates; B: Less hyphal formation; Clumps; Diffuse clumps and small polyps; F: Diffuse growth; H: Thin; I: Growth inhibition; Microcolony formation; Rippled; Small polyps; Thick; W: Halo formation on top, microlonies on bottom; further: test concentration or dose not given here
[14] = tested on: S. mutans; assay: as above; format: cell-based, Streptococcus mutans; parameters: key: A: Peptide aggregates; B: Less hyphal formation; Clumps; Diffuse clumps and small polyps; F: Diffuse growth; H: Thin; I: Growth inhibition; Microcolony formation; Rippled; Small polyps; Thick; W: Halo formation on top, microlonies on bottom; further: test concentration or dose not given here
[15] = tested on: F. nucleatum; assay: as above; format: cell-based, Fusobacterium nucleatum; parameters: key: A: Peptide aggregates; B: Less hyphal formation; Clumps; Diffuse clumps and small polyps; F: Diffuse growth; H: Thin; I: Growth inhibition; Microcolony formation; Rippled; Small polyps; Thick; W: Halo formation on top, microlonies on bottom; further: test concentration or dose not given here
[16] = tested on: C. jeikeium; assay: as above; format: cell-based, Corynebacterium jeikeium; parameters: key: A: Peptide aggregates; B: Less hyphal formation; Clumps; Diffuse clumps and small polyps; F: Diffuse growth; H: Thin; I: Growth inhibition; Microcolony formation; Rippled; Small polyps; Thick; W: Halo formation on top, microlonies on bottom; further: test concentration or dose not given here
[17] = tested on: M. luteus; assay: as above; format: cell-based, Micrococcus luteus; parameters: key: A: Peptide aggregates; B: Less hyphal formation; Clumps; Diffuse clumps and small polyps; F: Diffuse growth; H: Thin; I: Growth inhibition; Microcolony formation; Rippled; Small polyps; Thick; W: Halo formation on top, microlonies on bottom; further: test concentration or dose not given here
[18] = tested on: C. jejuni; assay: as above; format: cell-based, Campylobacter jejuni; parameters: key: A: Peptide aggregates; B: Less hyphal formation; Clumps; Diffuse clumps and small polyps; F: Diffuse growth; H: Thin; I: Growth inhibition; Microcolony formation; Rippled; Small polyps; Thick; W: Halo formation on top, microlonies on bottom; further: test concentration or dose not given here
[19] = tested on: C. albicans; assay: as above; format: cell-based, Candida albicans; parameters: key: A: Peptide aggregates; B: Less hyphal formation; Clumps; Diffuse clumps and small polyps; F: Diffuse growth; H: Thin; I: Growth inhibition; Microcolony formation; Rippled; Small polyps; Thick; W: Halo formation on top, microlonies on bottom; further: test concentration or dose not given here
[20] = peptide binding conducted in aqueous buffers varied by peptide solubility

ASKQASKQASKQASKQASKQASRSLKNHLL [PF-523]
MIC [1]: S. pneumoniae, 50 μM
Target(s) [2, 20]: S. epidermidis; also recorded: M. luteus; also recorded: C. albicans; also recorded: S. pneumoniae; also recorded: C. jeikeium; also recorded: C. jejuni
Activities [3]: B M

CGKLLEQKNFFLKTR [PF-521]
MIC [1]: S. pneumoniae, 50 μM
Organism, effect [4]: S. pneumoniae (H)
Target(s) [2, 20]: S. epidermidis; also recorded: E. coli; also recorded: P. aeruginosa; also recorded: S. pneumoniae; also recorded: E. faecalis
Activities [3]: G B M

FQKPFTGEEVEDFQDDDEIPTII [PF-437]
MIC [1]: S. pneumoniae, 50 μM
Organism, effect [4]: S. pneumoniae (I)
Activities [3]: G M

GIVLIGLKLIPLLANVLR [PF-322]
MIC [5]: B. subtilis, 50 μM
Organism, effect [6]: B. subtilis (H)
Organism, effect [7]: S. epidermidis (C)
Activities [3]: G M

KFSDQIDKGQDALKDKLGDL [PF-525]
MIC [8]: A. niger, 50 μM
MIC [1]: S. pneumoniae, 50 μM
Organism, effect [4]: S. pneumoniae (H)
Activities [3]: G M

LGLTAGVAYAAQPTNQPTNQPTNQPTNQPTNQPTNQPRW-NH2 [PF-520]
MIC [1]: S. pneumoniae, 50 μM
Organism, effect [4]: S. pneumoniae (M)
Activities [3]: G B M

LSEMERRRLRKRA-NH2 [PF-529]
MIC [8]: A. niger, 50 μM
MIC [1]: S. pneumoniae, 50 μM
Organism, effect [4]: S. pneumoniae (H)
Target(s) [2, 20]: S. epidermidis and E. coli and C. albicans and MRSA and S. pneumoniae and E. faecalis and C. jeikeium
Activities [3]: G B M

LVLRICTDLFTFIKWTIKQRKS [PF-497]
MIC [5]: B. subtilis, 50 μM
Target(s) [2, 20]: S. mutans; also recorded: B. subtilis; also recorded: E. coli
Activities [3]: B M

NYAVVSHT [PF-209]
MIC [9]: MRSA , 50 μM
Organism, effect [10]: MRSA (I)
Organism, effect [7]: S. epidermidis (C)
Organism, effect [11]: P. aeruginosa (H)
Target(s) ([2]; binding in aqueous buffers depending on peptide solubility): C. albicans; also recorded: C. jeikeium; also recorded: C. jejuni
Activities [3]: G B M

PDAPRTCYHKPILAALSRIVVTDR [PF-524]
MIC [1]: S. pneumoniae, 50 μM
Organism, effect [12]: E. faecalis (C)
Organism, effect [10]: MRSA (C)
Organism, effect [4]: S. pneumoniae (M)
Organism, effect [13]: E. coli (M)
Target(s) [2, 20]: S. epidermidis and E. coli and P. aeruginosa and C. albicans and MRSA and S. pneumoniae and E. faecalis and C. jeikeium
Activities [3]: G B M

PF-C131: peptide having multiple activities (QWIVAKREIRMHIYCHISVIHVIIFFG; Peptide with targeting and/or antimicrobial activity)
Organism, effect (morphology, biofilm and growth disruption) [14]: S. mutans (F)
Organism, effect (morphology, biofilm and growth disruption) [15]: F. nucleatum (T)
Target(s) (microorganisms bound by the targeting peptide) [2]: A. naeslundii; also recorded: F. nucleatum; also recorded: P. gingivalis; also recorded: S. mutans
Activities [3]: G B

PF-C145: peptide having multiple activities (YGKESDP; Peptide with targeting and/or antimicrobial activity)
Organism, effect (morphology, biofilm and growth disruption) [14]: S. mutans (I)
Organism, effect (morphology, biofilm and growth disruption) [15]: F. nucleatum (C)
Target(s) (microorganisms bound by the targeting peptide) [2]: A. naeslundii; also recorded: F. nucleatum; also recorded: P. gingivalis; also recorded: S. mutans; also recorded: T. denticola
Activities [3]: G B

PF-C291: peptide having multiple activities (HPFLTGTGCPLFLIFRLFFVKAYFSFTVF; Peptide with targeting and/or antimicrobial activity)
Organism, effect (morphology, biofilm and growth disruption) [14]: S. mutans (F)
Organism, effect (morphology, biofilm and growth disruption) [15]: F. nucleatum (T)
Target(s) (microorganisms bound by the targeting peptide) [2]: A. naeslundii; also recorded: F. nucleatum; also recorded: P. gingivalis; also recorded: S. mutans
Activities [3]: G B

RRGCTERLRRMARRNAWDLYAEHFY [PF-148]
MIC [8]: A. niger, 50 μM
MIC [5]: B. subtilis, 50 μM
Organism, effect [6]: B. subtilis (I)
Organism, effect [16]: C. jeikeium (H)
Organism, effect [17]: M. luteus (A)
Organism, effect [10]: MRSA (C)
Organism, effect [7]: S. epidermidis (D)
Organism, effect [4]: S. pneumoniae (R)
Organism, effect [18]: C. jejuni (H)
Organism, effect [19]: C. albicans (B)
Activities [3]: G B M

SFMPEIQKNTIPTQMK [PF-512]
MIC [1]: S. pneumoniae, 50 μM
Organism, effect [4]: S. pneumoniae (H)
Target(s) [2, 20]: S. pneumoniae; also recorded: C. jeikeium
Activities [3]: G B M

SLQSQLGPCLHDQRH [PF-448]
MIC [8]: A. niger, 25 μM
MIC [1]: S. pneumoniae, 50 μM
Organism, effect [4]: S. pneumoniae (I)
Target(s) [2, 20]: S. epidermidis; also recorded: M. luteus; also recorded: P. mirabilis; also recorded: E. coli; also recorded: S. pneumoniae; also recorded: E. faecalis; also recorded: C. jeikeium; also recorded: C. jejuni
Activities [3]: G B M

VMQSLYVKPPLILVTKLAQQN [PF-511]
MIC [1]: S. pneumoniae, 50 μM
Organism, effect [4]: S. pneumoniae (H)
Target(s) [2, 20]: E. coli; also recorded: P. aeruginosa; also recorded: S. pneumoniae; also recorded: C. jeikeium
Activities [3]: G B M

VYSFLYVLVIVRKLLSMKKRIERL [PF-499]
MIC [5]: B. subtilis, 50 μM
Target(s) [2, 20]: S. mutans; also recorded: E. coli
Activities [3]: B M
